From patent US20240239775A1, “FXR REGULATOR, PREPARATION METHOD THEREFOR, PHARMACEUTICAL COMPOSITION THEREOF AND USE THEREOF” (QINGDAO RUIJI MEDICAL TECHNOLOGY CO., LTD., priority 2021, published 2024)

Molecular target: T1, FXR (Homo sapiens, UniProt Q96RI1)
T1 construct: 5 μL of 20 nM FXR-LBD Complete Coregulator buffer G; purchased ThermoFisher PV4833
T1 sequence (Q96RI1 262-486 limits assumed): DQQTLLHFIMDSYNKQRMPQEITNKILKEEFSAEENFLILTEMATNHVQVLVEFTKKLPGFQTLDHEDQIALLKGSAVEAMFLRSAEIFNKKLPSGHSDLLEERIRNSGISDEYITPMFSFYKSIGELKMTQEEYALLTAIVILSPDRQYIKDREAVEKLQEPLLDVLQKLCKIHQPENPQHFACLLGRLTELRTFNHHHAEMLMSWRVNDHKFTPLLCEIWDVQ
Experiment: FXR antagonist screening by TR-FRET (LanthaScreen TR-FRET FXR co-activation assay kit)
Format: biochemical
Details: Table 1.2, FXR antagonistic activity; TR-FRET with CDCA; geometric means of at least two independent runs
In short: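 FXR-LBD (20 nM working solution) mixed with compound, CDCA (200 μM working solution) as agonist, Fluorescein-SRC2-2 and Tb-anti-GST antibody in Coregulator buffer G; 10 h at room temperature. Coactivator recruitment read by TR-FRET, triplicate wells.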

**Q.** For `Cc1c(C(=O)O)sc2ccc(S(=O)(=O)N(CCc3cccc(Cl)c3)c3ccccc3N3CCN(C(=O)c4sccc4Br)CC3)cc12` [Example F27-S172, 5-(N-(2-(4-(3-bromothiophene-2-carbonyl)piperazin-1-yl)phenyl)-N-(3-chlorophenethyl)sulfamoyl)-3-methylbenzothiophene-2-carboxylic acid], which IC50 is on record?
**A.** 0.1 to 10 µM

**Q.** For `Cc1c(C(=O)O)sc2ccc(S(=O)(=O)N(CCc3ccccc3Cl)c3ccccc3N3CCN(C(=O)c4sccc4Br)CC3)cc12` [Example F27-S173, 5-(N-(2-(4-(3-bromothiophene-2-carbonyl)piperazin-1-yl)phenyl)-N-(2-chlorophenethyl)sulfamoyl)-3-methylbenzothiophene-2-carboxylic acid], which IC50 is on record?
**A.** 0.1 to 10 µM

**Q.** With `COc1ccccc1CCN(c1ccccc1N1CCN(C(=O)c2sccc2Br)CC1)S(=O)(=O)c1ccc2sc(C(=O)O)c(C)c2c1` [Example F27-S174, 5-(N-(2-(4-(3-bromothiophene-2-carbonyl)piperazin-1-yl)phenyl)-N-(2-methoxyphenethyl)sulfamoyl)-3-methylbenzothiophene-2-carboxylic acid] as the molecule, how does the IC50 read?
**A.** 0.1 to 10 µM

**Q.** With `Cc1c(C(=O)O)sc2ccc(S(=O)(=O)N(CCc3ccccc3[N+](=O)[O-])c3ccccc3N3CCN(C(=O)c4sccc4Br)CC3)cc12` [Example F27-S175, 5-(N-(2-(4-(3-bromothiophene-2-carbonyl)piperazin-1-yl)phenyl)-N-(2-nitrophenylethyl)sulfamoyl)-3-toluothiophene-2-carboxylic acid] as the molecule, how does the IC50 read?
**A.** 0.1 to 10 µM

**Q.** `Cc1c(C(=O)O)sc2ccc(S(=O)(=O)N(CCCc3ccccc3)c3ccccc3N3CCN(C(=O)c4sccc4Br)CC3)cc12` [Example F27-S176, 5-(N-(2-(4-(3-bromothiophene-2-carbonyl)piperazin-1-yl)phenyl)-N-(3-phenylpropyl)sulfamoyl)-3-methylbenzothiophene-2-carboxylic acid] was tested. Which IC50 did it give?
**A.** 0.1 to 10 µM

**Q.** With `Cc1c(C(=O)O)sc2ccc(S(=O)(=O)Nc3ccccc3N3CCN(C(=O)c4sccc4Br)CC3)cc12` [Example F27-S177, 5-(N-(2-(4-(3-bromothiophene-2-carbonyl)piperazin-1-yl)phenyl)sulfamoyl)-3-toluothiophene-2-carboxylic acid] as the molecule, how does the IC50 read?
**A.** 0.1 to 10 µM

**Q.** How did the IC50 turn out when `Cc1c(C(N)=O)oc2ccc(S(=O)(=O)N(CCc3ccccc3)c3ccccc3N3CCN(C(=O)c4sccc4Br)CC3)cc12` [Example F27-S178, 5-(N-(2-(4-(3-bromothiophene-2-formyl)piperazin-1-yl)phenyl)-N-phenethylsulfamoyl)3-methylbenzofuran-2-carboxamide] was run?
**A.** 0.1 to 10 µM

**Q.** With `Cc1c(C(=O)O)n(C)c2ccc(S(=O)(=O)N(CCc3ccccc3)c3ccccc3N3CCN(C(=O)c4sccc4Br)CC3)cc12` [Example F27-S179, 5-(N-(2-(4-(3-bromothiophene-2-carbonyl)piperazin-1-yl)phenyl)-N-phenethylsulfamoyl)-1,3-dimethyl-1H-indole-2-carboxylic acid] as the molecule, how does the IC50 read?
**A.** 0.1 to 10 µM

**Q.** `Cc1c(C(=O)O)sc2ccc(S(=O)(=O)N(CCC3CCCCC3)c3ccccc3N3CCN(C(=O)c4sccc4Br)CC3)cc12` [Example F27-S180, 5-(N-(2-(4-(3-bromothiophene-2-carbonyl)piperazin-1-yl)phenyl)-N-(2-cyclohexylethyl)sulfamoyl)-3-methylbenzothiophene-2-carboxylic acid] was tested. Which IC50 did it give?
**A.** 0.1 to 10 µM

**Q.** For `Cc1c(C(=O)O)sc2ccc(S(=O)(=O)N(Cc3ccccc3)c3ccccc3N3CCN(C(=O)c4sccc4Br)CC3)cc12` [Example F27-S181, 5-(N-benzyl-N-(2-(4-(3-bromothiophene-2-carbonyl)piperazin-1-yl)phenyl)sulfamoyl)-3-methylbenzothiophene-2-carboxylic acid], which IC50 is on record?
**A.** 0.1 to 10 µM

**Q.** For `Cc1c(C(=O)O)sc2ccc(S(=O)(=O)N(C)c3ccccc3N3CCN(C(=O)c4sccc4Br)CC3)cc12` [Example F27-S182, 5-(N-(2-(4-(3-bromothiophene-2-carbonyl)piperazin-1-yl)phenyl)-N-methylsulfamoyl)-3-methylbenzothiophene-2-carboxylic acid], which IC50 is on record?
**A.** 0.1 to 10 µM
